What is called IC50 is the midpoint of a concentration-inhibition curve.

Test [1] deals with P. falciparum 3D7-infected erythrocytes. The experiment in a line: Plasmodium falciparum growth inhibition assay (SYBR Green I, flow cytometry), drug-sensitive strain. It is filed as cell-based. The procedure: (§1) Plates were incubated under standard P. falciparum culture conditions for 48 h. […] Fixed parasitized red blood cells (RBC) were stored at 4 °C in the dark until flow cytometry analysis. Parasite growth was assessed by flow cytometry on a BD FACS Cantoll (BD Biosciences) or a Attune™ NxT Flow Cytometer (Invitrogen). Cell doublets were excluded from the analysis using a forward scatter (FSC)-width versus FSC-area dot plot. Infected and uninfected erythrocytes were gated on the basis of their FSC and side scatter (SSC) signals. Fluorescence analysis (Green fluorescence FITC) was performed using BD FACSDiva software (BD Biosciences) on a total of 200,000 acquired events. […] Fluorescence of non-infected RBC was adjusted to plot between 10° and 10^2. Results are expressed as the percentage of growth inhibition.
(§2) All IC50 values were calculated using log-linear interpolation (www.antimalarial-icestimator.net), with mean values (± SD) determined over at least two independent experiments.
On the technique in general: A flow cytometer gives signals particle by particle.

Test [2] relates to multidrug-resistant P. falciparum line Dd2. The experiment in a line: Plasmodium falciparum growth inhibition assay (SYBR Green I, flow cytometry), multidrug-resistant line. The test is classed as cell-based. The following applies: Plasmodium falciparum, DD2, 48 h, line resistant to CQ, PYR and mefloquine, mean ± SD, n ≥ 2, read-out: PfDd2 IC50. The procedure:
as §1, §2

Test [3] has as its system P. berghei ANKA parasites. The experiment in a line: Peters 4-day suppressive test, oral efficacy in P. berghei-infected mice. It is filed as in vivo, Plasmodium berghei. As to conditions: Experiment 3. On the procedure: Compounds powder was dissolved in DMSO and sonicated for 10 min. Appropriate volume of 50%W/v HPβCD was added dropwise under gentle swirling. After 10 min sonication, DPBS was added dropwise under gentle swirling and the mixture was sonicated again for 10 min. After checking the pH (5.5 - 7), the solution was filtered (0.22µm) and conserved at room temperature for max 2 days. Final concentration of compounds was 2.5 mg/mL, 1 mg/mL or 0.1 mg/mL for mice treatment with 25 mg/kg, 10 mg/kg or 1mg/kg doses.
10 weeks-old Balb/C male mice were purchased from Janvier Labs.
P. berghei ANKA parasites stabilates conserved in liquid nitrogen were thawed and injected intraperitoneally (ip) into 2-3 mice (10^6 infected red blood cells (RBC) / mouse). When parasitemia reached 3-5%, mice were bled and groups of six BALB/c male mice were infected with 10^6 P. berghei ANKA parasites (day 0), and treated per os (p.o.) twice a day on days 0, 1, 2 and 3. […] On day 4 post infection (p.i.), the peripheral blood parasitemia of all mice was evaluated via microscopic examination of Giemsa-stained thin blood smears. Parasitemia was then followed for two weeks.

Setting [4] is: Plasmodium falciparum, 3D7, Erythrocyte, 48 h incubation, mean ± SD, n ≥ 2, read-out: Pf3D7 IC50.
Where [5] appears, read: Plasmodium falciparum, 3D7, Erythrocyte, 48 h incubation, read-out: IC50 (Pf3D7).
The mark [6] stands for this setting: Plasmodium falciparum, 3D7, Erythrocyte, 48 h, read-out: Pf3D7 IC50.
Where [7] appears, read: Balb/C mice, 1 mg/kg p.o. twice a day on days 0-3, day 5 p.i.
Where [8] appears, read: Balb/C mice, 1 mg/kg p.o. twice a day on days 0-3, day 6 p.i.
Setting [9] is: Balb/C mice, 1 mg/kg p.o. twice a day on days 0-3, day 7 p.i.
The mark [10] stands for this setting: Balb/C mice, 1 mg/kg p.o. twice a day on days 0-3, day 8 p.i.
[11] abbreviates: Balb/C mice, 1 mg/kg p.o. twice a day on days 0-3, day 10 p.i.

Structures can show the parent of a compound that is named as a salt. Where two headings read alike, the source gives them in different places.

Turning to `CCc1nc(N)nc(N)c1OCCCCOc1ccccc1CCC(=O)NO` [3·HCl, 3-(2-[4-(2,4-Diamino-6-ethylpyrimidin-5-yloxy)butoxy]phenyl)-N-hydroxypropanamide hydrochloride], the IC50 in test [1] (setting [4]) amounted to 0.451 ± 0.088 nM.
With `CCc1nc(N)nc(N)c1OCCCOc1cc(OC)ccc1CCC(=O)NO` [4·HCl, 3-(2-[3-(2,4-Diamino-6-ethylpyrimidin-5-yloxy)propoxy]-4-methoxyphenyl)-N-hydroxypropanamide hydrochloride], the figures for the IC50 in test [2], in test [1] (setting [4]) and in test [1] (setting [5]) were 6.2 ± 0.5 nM, 0.173 ± 0.122 nM and below 0.2 nM, respectively.
For the compound `CCc1nc(N)nc(N)c1OCCCOc1cc(Cl)ccc1CCC(=O)NO` [5·HCl, 3-(4-Chloro-2-[3-(2,4-diamino-6-ethylpyrimidin-5-yloxy)propoxy]phenyi)-N-hydroxypropanamide hydrochloride], the IC50 in test [1] (setting [6]) was determined as 0.279 ± 0.154 nM.
`CCc1nc(N)nc(N)c1OCCCOc1cc(OC)ccc1/C=C/C(=O)NO` [14·HCl, (E)-3-{2-[3-(2,4-Diamino-6-ethylpyrimidin-5-yloxy)propoxy]-4-methoxyphenyl}-N-hydroxyacrylamide hydrochloride]: the figures for the IC50 in test [1] (setting [4]) and in test [1] (setting [5]) were 0.088 ± 0.02 nM and below 0.1 nM, respectively.
Take `CCc1nc(N)nc(N)c1OCCOc1cccc(/C=C/C(=O)NO)c1` [18·HCl, (E)-3-(3-[2-(2,4-Diamino-6-ethylpyrimidin-5-yloxy)ethoxy]phenyl)-N-hydroxyacrylamide hydrochloride]: the IC50 in test [1] (setting [4]) was 0.249 ± 0.015 nM.
On to `CCc1nc(N)nc(N)c1OCCCOc1cccc(/C=C/C(=O)NO)c1` [19·HCl, (E)-3-{3-[3-(2,4-Diamino-6-ethylpyrimidin-5-yloxy)propoxy]phenyl}-N-hydroxyacrylamide hydrochloride], for which the results for the IC50 in test [2], in test [1] (setting [4]) and in test [1] (setting [5]) were 41.5 ± 11.9 nM, 0.173 ± 0.021 nM and below 0.2 nM, respectively.
Turning to `CCc1nc(N)nc(N)c1OCCCOc1ccc(/C=C/C(=O)NO)cc1` [20·HCl, (E)-3-{4-[3-(2,4-Diamino-6-ethylpyrimidin-5-yloxy)propoxy]phenyl}-N-hydroxyacrylamide hydrochloride], the IC50 in test [1] (setting [4]) was 0.117 ± 0.045 nM; in test [1] (setting [5]), below 0.2 nM.
On to `CCN(CC)CCCC(C)Nc1ccnc2cc(Cl)ccc12` (stereo not drawn) [CQ, chloroquine, reference compound], for which the “parasitemia (mean ± sd)” value came out at 0% in test [3] (positive control, 10 mg/kg p.o. once a day for 4 days, day 4 p.i.); 0% in test [3] (positive control, 10 mg/kg p.o. once a day for 4 days, day 5 p.i.); 0% in test [3] (positive control, 10 mg/kg p.o. once a day for 4 days, day 6 p.i.); 0% in test [3] (positive control, 10 mg/kg p.o. once a day for 4 days, day 7 p.i.); 0% in test [3] (positive control, 10 mg/kg p.o. once a day for 4 days, day 8 p.i.); 0% in test [3] (positive control, 10 mg/kg p.o. once a day for 4 days, day 10 p.i.). Further, the IC50 in test [1] (setting [6]) came out at 4.7 ± 1.7 nM.
On to `CCc1nc(N)nc(N)c1OCCCOc1ccccc1CCC(=O)NOCc1ccccc1` [Compound 7, N-(Benzyloxy)-3-(2-(3-(2,4-diamino-6-ethylpyrimidin-5-yloxy)propoxy)phenyl)propanamide], for which the concentration for half-maximal inhibition (IC50) in test [1] (setting [4]) was determined as 0.497 ± 0.055 nM.
As for `CCc1nc(N)nc(N)c1OCCCOc1cc(C(=O)NO)ccc1Cl` [Compound 9, 4-Chloro-3-[3-(2,4-diamino-6-ethylpyrimidin-5-yloxy)propoxy]-N-hydroxybenzamide], the IC50 was 16.9 ± 3.2 nM in test [2], 0.172 ± 0.027 nM in test [1] (setting [4]) and below 0.2 nM in test [1] (setting [5]).
Turning to `CCc1nc(N)nc(N)c1OCCCOc1cc(C(=O)NO)ccc1F` [Compound 10, 3-(3-[2,4-Diamino-6-ethylpyrimidin-5-yloxy)propoxy]-4-fluoro-N-hydroxybenzamide], the IC50 in test [1] (setting [4]) is 0.39 ± 0.012 nM.
In the case of `CCc1nc(N)nc(N)c1OCCCOc1cccc(C(=O)NOCc2ccc(OC(C)=O)cc2)c1` [Compound 11, N-(4-Acetoxybenzyloxy)-3-[3-(2,4-diamino-6-ethylpyrimidin-5-yloxy)propoxy]benzamide], the “ranking of activity against P. berghei infection” value in test [3] (1 mg/kg p.o. twice a day on days 0-3) is given as “most active”. Further, the IC50 in test [1] (setting [4]) was 1.02 ± 0.68 nM; in test [1] (setting [5]), below 0.2 nM.
Regarding `CCc1nc(N)nc(N)c1OCCCOc1cc(Cl)ccc1/C=C/C(=O)NO` [Compound 15, (E)-3-{4-Chloro-2-[3-(2,4-diamino-6-ethylpyrimidin-5-yloxy)propoxy]phenyl}-N-hydroxyacrylamide], the IC50 is 4 ± 0.4 nM in test [2], 0.082 ± 0.007 nM in test [1] (setting [4]) and below 0.1 nM in test [1] (setting [5]).
As for `CCc1nc(N)nc(N)c1OCCCOc1ccccc1/C=C/C(=O)NOCc1ccc(OC(C)=O)cc1` [Compound 16, (E)-N-(4-Acetoxybenzyloxy)-3-{2-[3-(2,4-diamino-6-ethylpyrimidin-5-yloxy)propoxy]phenyl}acrylamide], the “number of mice showing blood parasites” value is given as 1/5 in test [3] (Balb/C mice, 1 mg/kg p.o. twice a day on days 0-3, day 4 p.i.); 2/5 in test [3] (setting [7]); 3/5 in test [3] (setting [8]); 3/5 in test [3] (setting [9]); 5/5 in test [3] (setting [10]); 5/5 in test [3] (setting [11]). Besides, the “parasitemia (mean ± sd)” value is recorded as 0,02 ± 0,04% in test [3] (Balb/C mice, 1 mg/kg p.o. twice a day on days 0-3, day 4 p.i., 1 mg/kg); 0,48 ± 0,72% in test [3] (setting [7]); 2,22 ± 2,44% in test [3] (setting [8]); 5,21 ± 7,86% in test [3] (setting [9]); 5,33 ± 5,64% in test [3] (setting [10]); 9,25 ± 7,38% in test [3] (setting [11]). Further, the IC50 is 0.067 ± 0.005 nM in test [1] (setting [4]) and below 0.1 nM in test [1] (setting [5]).
For `CCc1nc(N)nc(N)c1OCCCOc1ccccc1/C=C/C(=O)NOCc1ccccc1` [Compound 17, (E)-N-(Benzyloxy)-3-{2-[3-(2,4-diamino-6-ethylpyrimidin-5-yloxy)propoxy]phenyl}acrylamide], in test [1] (setting [4]), the IC50 was determined as 0.331 ± 0.124 nM.
Consider `CCc1nc(N)nc(N)c1OCCCOc1cccc(COc2cccc(/C=C/C(=O)NO)c2)c1` [Compound 21, (E)-3-(3-(3-[3-(2,4-Diamino-6-ethylpyrimidin-5-yloxy)propoxy]benzyloxy)phenyl)-N-hydroxyacrylamide hydrochloride], for which, in test [1] (setting [4]), the IC50 was 0.347 ± 0.047 nM.
Take `CCc1nc(N)nc(N)c1OCCCOc1cccc(C(=O)NCCCCCCC(=O)NO)c1` [Compound 30, 3-{3-[(2,4-Diamino-6-ethylpyrimidin-5-yl)oxy]propoxy}-N-[7-(hydroxyamino)-7-oxoheptyl]benzamide]: in test [1] (setting [4]), the IC50 worked out at 0.876 ± 0.018 nM.
Regarding `CCc1nc(N)nc(N)c1OCCCOc1ccc(C(=O)NCCCCCCC(=O)NO)cc1` [Compound 31, 4-{3-[(2,4-Diamino-6-ethylpyrimidin-5-yl)oxy]propoxy}-N-[7-(hydroxyamino)-7-oxoheptyl]benzamide], the values for the IC50 in test [2] and in test [1] (setting [4]) were 22.8 ± 2.6 nM and 0.404 ± 0.136 nM, respectively.
Take “N-(4-Acetoxybenzyloxy)-3-(2-(3-(2,4-diamino-6-ethylpyrimidin-5-yloxy)propoxy)phenyl)propenamide [Compound 6]”: the IC50 in test [1] (48 h incubation, mean ± SD, n ≥ 2, read-out: Pf3D7 IC50) worked out at 0.169 ± 0.041 nM.

Values taken from patent EP4438596A1, “DIAMINOPYRIMIDINE DERIVATIVES AS HDAC AND DHFR DUAL-TARGETING INHIBITORS AND USE THEREOF IN PREVENTING AND TREATING MALARIA” (Université de Lille, priority 2023, dated 2024).
